Results taken from US11472803B2, “7-substituted 1-aryl-naphthyridine-3-carboxylic acid amides and use thereof” (Bayer Aktiengesellschaft, priority 2016, dated 2022).

What was measured:
human M2 receptor [1] = target: T1, human M2 receptor (Homo sapiens, UniProt P08172); experiment: Functional M2-GIRK1/4 activation test: allosteric potency (EC50) and efficiency at EC20 acetylcholine; type: cell-based; conditions: CHO-DUKX-M2-GIRK cells; for EC50: voltage-sensitive dye, acetylcholine at EC20, in some cases mean of two or more determinations; for Emax / Efficiency: boosting of the acetylcholine effect at EC20 acetylcholine concentration
T1 construct: expressed in transfected cells; host or cells: CHO-DUKX (CHO-DUKX-M2-GIRK)
T1 sequence (P08172 1-466): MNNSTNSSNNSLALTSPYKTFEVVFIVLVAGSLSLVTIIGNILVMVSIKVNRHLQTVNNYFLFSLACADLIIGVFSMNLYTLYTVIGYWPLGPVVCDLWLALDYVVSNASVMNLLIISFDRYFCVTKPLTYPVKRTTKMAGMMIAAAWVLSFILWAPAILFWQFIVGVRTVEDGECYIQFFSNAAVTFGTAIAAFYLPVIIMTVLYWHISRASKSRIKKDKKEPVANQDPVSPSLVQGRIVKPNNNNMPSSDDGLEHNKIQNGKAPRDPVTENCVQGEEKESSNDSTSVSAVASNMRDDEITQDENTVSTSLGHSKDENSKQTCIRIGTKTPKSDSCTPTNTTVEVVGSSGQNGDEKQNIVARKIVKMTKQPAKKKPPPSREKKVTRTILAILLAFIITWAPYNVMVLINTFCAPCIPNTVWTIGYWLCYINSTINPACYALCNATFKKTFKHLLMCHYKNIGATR
In short: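 CHO-DUKX cells stably expressing human M2 and GIRK1/4; membrane potential tracked with voltage-sensitive dye at room temperature. Compound added 50 s before acetylcholine at its EC20, then hyperpolarization read 60 s. EC50 (allosteric potency) and efficiency (boost of EC20 ACh effect) from 4-parameter Hill fit.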

human M2 receptor [2] = target: T1, human M2 receptor; experiment: Functional M2-GIRK1/4 activation test: positive cooperativity (α factor), shift of acetylcholine dose-response curve; type: cell-based; conditions: Allosteric EC50 shift of acetylcholine 8-point dose-response curve; CHO-DUKX-M2-GIRK cells; α>1 = positive cooperativity
In short: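 CHO-DUKX cells stably expressing human M2 and GIRK1/4, loaded with voltage-sensitive dye at room temperature; hyperpolarization followed by fluorescence. Each test-substance concentration, added first, combined with an 8-point acetylcholine dose-response; shift of the acetylcholine curve analysed by allosteric EC50 shift model to give cooperativity factor α.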

SMILES	EC50 (human M2 receptor [1]) [nM]	Emax (human M2 receptor [1]) [%]	Cooperativity (alpha factor) (human M2 receptor [2])	Efficiency (human M2 receptor [1]) [%]
CC[C@H](NC(=O)c1cn(-c2c(F)cc(F)cc2F)c2nc(N3C[C@@H](O)[C@@H](O)C3)c(F)cc2c1=O)C(F)(F)F [Example 98, 7-[(3R,4S)-3,4-Dihydroxypyrrolidin-1-yl]-6-fluoro-4-oxo-N-[(2S)-1,1,1-trifluorobutan-2-yl]-1-(2,4,6-trifluorophenyl)-1,4-dihydro-1,8-naphthyridine-3-carboxamide]	14.3	98	50	–
CC(C)[C@@H](C)NC(=O)c1cn(-c2c(F)cc(F)cc2F)c2nc(N3C[C@@H](O)[C@H](O)C3)c(F)cc2c1=O [Example 15, 7-[(3R,4R)-3,4-dihydroxypyrrolidin-1-yl]-6-fluoro-N-[(2R)-3-methylbutan-2-yl]-4-oxo-1-(2,4,6-trifluorophenyl)-1,4-dihydro-1,8-naphthyridine-3-carboxamide]	9.15	96	41	–
CCC(COC(F)(F)F)NC(=O)c1cn(-c2c(F)cc(F)cc2F)c2nc(N3C[C@@H](O)[C@H](O)C3)c(F)cc2c1=O (single isomer, unassigned) [Example 32]	4.3	–	54	100
O=C(N[C@@H](C1CC1)C(F)(F)F)c1cn(-c2c(F)cc(F)cc2F)c2nc(N3C[C@@H](O)[C@H](O)C3)c(Br)cc2c1=O [Example 160, 6-Bromo-N-[(1S)-1-cyclopropyl-2,2,2-trifluoroethyl]-7-[(3R,4R)-3,4-dihydroxypyrrolidin-1-yl]-4-oxo-1-(2,4,6-trifluorophenyl)-1,4-dihydro-1,8-naphthyridine-3-carboxamide]	7.3	100	38	–
O=C(NC(C(F)(F)F)C(F)(F)F)c1cn(-c2c(F)cc(F)cc2F)c2nc(N3C[C@@H](O)[C@H](O)C3)c(F)cc2c1=O [Example 144, 7-[(3R,4R)-3,4-Dihydroxypyrrolidin-1-yl]-6-fluoro-N-(1,1,1,3,3,3-hexafluoropropan-2-yl)-4-oxo-1-(2,4,6-trifluorophenyl)-1,4-dihydro-1,8-naphthyridine-3-carboxamide]	4.5	98	67	–
C[C@H](NC(=O)c1cn(-c2c(F)cc(F)cc2F)c2nc(N3C[C@@H](O)[C@H](O)C3)c(F)cc2c1=O)C(F)(F)F [Example 18, 7-[(3R,4R)-3,4-dihydroxypyrrolidin-1-yl]-6-fluoro-4-oxo-1-(2,4,6-trifluorophenyl)-N-[(2S)-1,1,1-trifluoropropan-2-yl]-1,4-dihydro-1,8-naphthyridine-3-carboxamide]	20.5	99	43	–
CC(NC(=O)c1cn(-c2c(F)cc(F)cc2F)c2nc(N3CCCC[C@@H]3CO)c(F)cc2c1=O)C(F)(F)C(F)(F)F (single isomer, unassigned) [Example 185]	6.4	83	13	–
C[C@@H](NC(=O)c1cn(-c2c(F)cc(F)cc2Cl)c2nc(N3C[C@@H](O)[C@H](O)C3)c(F)cc2c1=O)C(F)(F)F (single isomer, unassigned) [Example 228]	6.4	–	33	93

Second part, the compound after the results:

EC50 (human M2 receptor [1]) [nM]	Emax (human M2 receptor [1]) [%]	Cooperativity (alpha factor) (human M2 receptor [2])	Efficiency (human M2 receptor [1]) [%]	SMILES
16	100	30	–	CC1(O)CN(c2nc3c(cc2F)c(=O)c(C(=O)N[C@@H](C2CC2)C(F)(F)F)cn3-c2c(F)cc(F)cc2F)C1 [Example 53, N-[(1S)-1-Cyclopropyl-2,2,2-trifluoroethyl]-6-fluoro-7-(3-hydroxy-3-methylazetidin-1-yl)-4-oxo-1-(2,4,6-trifluorophenyl)-1,4-dihydro-1,8-naphthyridine-3-carboxamide]
3.8	–	34	99	CC(NC(=O)c1cn(-c2c(F)cc(F)cc2F)c2nc(N3CC(CO)(CO)C3)c(F)cc2c1=O)C(F)(F)C(F)(F)F (racemic) [Example 169, 7-[3,3-Bis(hydroxymethyl)azetidin-1-yl]-6-fluoro-4-oxo-N-[3,3,4,4,4-pentafluorobutan-2-yl]-1-(2,4,6-trifluorophenyl)-1,4-dihydro-1,8-naphthyridine-3-carboxamide]
1.6	100	39	–	O=C(NC(C1CC1)C(F)(F)C(F)(F)F)c1cn(-c2c(F)cc(F)cc2F)c2nc(N3C[C@@H](O)[C@H](O)C3)c(F)cc2c1=O (single isomer, unassigned) [Example 201]
3.3	–	35	94	CCC(NC(=O)c1cn(-c2c(F)cc(F)cc2F)c2nc(N3CC(CO)(CO)C3)c(F)cc2c1=O)C(F)(F)C(F)(F)F (racemic) [Example 172, 7-[3,3-Bis(hydroxymethyl)azetidin-1-yl]-6-fluoro-4-oxo-N-[1,1,1,2,2-pentafluoropentan-3-yl]-1-(2,4,6-trifluorophenyl)-1,4-dihydro-1,8-naphthyridine-3-carboxamide]
6	100	38	–	O=C(N[C@@H](C1CC1)C(F)(F)F)c1cn(-c2c(F)cc(F)cc2F)c2nc(N3C[C@@H](O)[C@H](O)C3)c(Cl)cc2c1=O [Example 37, 6-chloro-N-[(1S)-1-cyclopropyl-2,2,2-trifluoroethyl]-7-[(3R,4R)-3,4-dihydroxypyrrolidin-1-yl]-4-oxo-1-(2,4,6-trifluorophenyl)-1,4-dihydro-1,8-naphthyridine-3-carboxamide]
8.35	88	39	–	O=C(N[C@@H](C1CC1)C(F)(F)F)c1cn(-c2c(F)cc(F)cc2F)c2nc(N3CC(CO)(CO)C3)c(F)cc2c1=O [Example 84, 7-[3,3-Bis(hydroxymethyl)azetidin-1-yl]-N-[(1S)-1-cyclopropyl-2,2,2-trifluoroethyl]-6-fluoro-4-oxo-1-(2,4,6-trifluorophenyl)-1,4-dihydro-1,8-naphthyridine-3-carboxamide]
